The test system of one data set is Proteus mirabilis. The experiment in a line: antibacterial activity in vitro, dilution in liquid medium method (MIC/MBC). The format is cell-based. The following applies: read-out: minimum inhibiting concentration (MIC). The method, then:
(§1) The nalidixic acid solution and the solutions containing compounds of the formula (I) were prepared in distilled water with addition of sodium hydroxide.
(§2) The strains used are all obtained from the hospital where they were recently isolated from urinary infections (except Salmonella para B and Listeria which are obtained from a collection):
(§3) Different dilutions of 24 hour cultures in physiological saline were used, depending on the respective growth rate of each germ:
(§4) The test is conducted in phenol red glucose broth inoculated with 0.1 ml of the dilution of the germ studied per 3 ml of broth.
(§5) The bactericidal activity was investigated according to the dilution in liquid medium method.
(§6) After 18 hours in an oven at 37° C., the minimum inhibiting concentration (MIC) corresponding to the last tube whose pH remains unmodified was noted.
(§7) The minimum bactericidal concentration (MBC) was investigated by spreading on a dish of agar medium a dosage of material taken from the tubes which have remained clear. The MBC/24 hrs is the lowest concentration for which the survival rate is zero after a contact time of 24 hours.

A further data set concerns Pseudomonas aeruginosa. The description is as above. In kind it is cell-based. The following applies: read-out: minimum inhibiting concentration (MIC). The method, then:
as §1, §2, §3, §4, §5, §6, §7

In a further data set the test system is Klebsiella pneumoniae. The data set is described as above. The following applies: read-out: minimum inhibiting concentration (MIC). In kind it is cell-based. On the procedure:
as §1, §2, §3, §4, §5, §6, §7

In a further data set the test system is Streptococcus foecalis. Described as above. In kind it is cell-based. The following applies: read-out: minimum inhibiting concentration (MIC). The method, then: as §1, §2, §3, §4, §5, §6, §7
In the next data set the test system is Staphylococcus aureus. The description is as above. The format is cell-based. The following applies: read-out: minimum inhibiting concentration (MIC). The method, then:
as §1, §2, §3, §4, §5, §6, §7

The test system of another data set is Escherichia coli. Described as above. In kind it is cell-based. The following applies: for MIC: read-out: minimum inhibiting concentration (MIC); for MBC: read-out: minimum bactericidal concentration (MBC). The method, then:
as §1, §2, §3, §4, §5, §6, §7

In another data set the test system is Salmonella para B. The description is as above. In kind it is cell-based. The following applies: for MIC: read-out: minimum inhibiting concentration (MIC). On the procedure:
as §1, §2, §3, §4, §5, §6, §7

In a further data set the test system is Enterobacter cloacae. The description is as above. The format is cell-based. The following applies: for MIC: read-out: minimum inhibiting concentration (MIC). On the procedure:
as §1, §2, §3, §4, §5, §6, §7

The next data set has as its system Listeria monocytogenes. The description is as above. In kind it is cell-based. The following applies: for MIC: read-out: minimum inhibiting concentration (MIC); for MBC: read-out: minimum bactericidal concentration (MBC). On the procedure:
as §1, §2, §3, §4, §5, §6, §7

For a further data set, the system named is Citrobacter. Described as above. The format is cell-based. The following applies: read-out: minimum inhibiting concentration (MIC). On the procedure:
as §1, §2, §3, §4, §5, §6, §7

Data set [1] relates to Enterobacter liquefaciens. Described as above. In kind it is cell-based. The following applies: for MIC: read-out: minimum inhibiting concentration (MIC). The method, then: as §1, §2
Enterobacter liquefaciens
as §3, §4, §5, §6, §7

The nature of data set [2]: acute toxicity, graphical method according to Miller and Tainter. The following applies: mouse, in vivo, mice. From the text:
Indeed, their LD50 values in mice, as determined by the graphical method according to Miller and Tainter are as follows: […]

Setting [3] is: Streptococcus foecalis, 18 hours, 37° C.
The mark [4] stands for this setting: Salmonella para B, 18 hours, 37° C.

This is an account of results in US4190661A, “Pyrazolo-quinolines, compositions and pharmaceutical preparations” (Laboratoires Chauvin-Blache, priority 1977, dated 1980).

Values after ≈ are worked out from the molar mass of the structure shown. Read-outs that look alike come from different tables or passages of the source.

`CCn1cc(C(=O)O)c(=O)c2ccc3[nH]ncc3c21` [I b, 1-ethyl-3-carboxy-4-oxo-pyrazolo[5,4-h]quinoline]: the MIC in the data set on Proteus mirabilis (18 hours, 37° C.) is over 100 µg/mL; with Pseudomonas aeruginosa (18 hours, 37° C.), over 100 µg/mL; in the data set with Klebsiella pneumoniae (18 hours, 37° C.), over 100 µg/mL; in the data set on Streptococcus foecalis (setting [3]) it was over 100 µg/mL; in the data set with Staphylococcus aureus (18 hours, 37° C.), over 100 µg/mL; in the data set with Escherichia coli (18 hours, 37° C.), over 100 µg/mL. The MIC in the data set with Salmonella para B (setting [4]) is over 100 µg/mL.

Consider `CCn1cc(C(=O)O)c(=O)c2ccc3cnn(CC)c3c21` [I h, 1,9-diethyl-3-carboxy-4-oxo-pyrazolo[4,5-h]quinoline], for which the MIC with Proteus mirabilis (18 hours, 37° C.) was over 10 µg/mL; with Pseudomonas aeruginosa (18 hours, 37° C.) it was over 10 µg/mL; in the data set on Klebsiella pneumoniae (18 hours, 37° C.), over 10 µg/mL; with Streptococcus foecalis (setting [3]), over 10 µg/mL; in the data set with Staphylococcus aureus (18 hours, 37° C.), over 10 µg/mL.

Consider `CCn1cc(C(=O)O)c(=O)c2c3cn[nH]c3ccc21` [I c, 1-Ethyl-3-carboxy-4-oxo-pyrazolo[4,5-f]quinoline], for which the MIC with Proteus mirabilis (18 hours, 37° C.) is over 10 µg/mL; with Pseudomonas aeruginosa (18 hours, 37° C.) it was over 10 µg/mL; with Klebsiella pneumoniae (18 hours, 37° C.), over 10 µg/mL; in the data set on Streptococcus foecalis (setting [3]), over 10 µg/mL; in the data set with Staphylococcus aureus (18 hours, 37° C.), over 10 µg/mL; in the data set with Escherichia coli (18 hours, 37° C.), over 10 µg/mL.

With `CCn1cc(C(=O)O)c(=O)c2c3cnn(Cc4ccccc4)c3ccc21` [I d, 1-ethyl-3-carboxy-4-oxo-7-benzyl-pyrazolo[4,5-f]quinoline], the MIC is over 10 µg/mL in the data set on Proteus mirabilis (18 hours, 37° C.); over 10 µg/mL in the data set with Pseudomonas aeruginosa (18 hours, 37° C.); over 10 µg/mL with Streptococcus foecalis (setting [3]); over 10 µg/mL with Staphylococcus aureus (18 hours, 37° C.).

As to `CCn1cc(C(=O)O)c(=O)c2c3[nH]ncc3ccc21` [I e], the MIC was over 10 µg/mL in the data set with Proteus mirabilis (18 hours, 37° C.); over 10 µg/mL in the data set on Enterobacter cloacae (18 hours, 37° C.); over 10 µg/mL with Pseudomonas aeruginosa (18 hours, 37° C.); over 10 µg/mL with Klebsiella pneumoniae (18 hours, 37° C.); 10 µg/mL (≈ 38.9 µM) in the data set on Listeria monocytogenes (18 hours, 37° C.); over 10 µg/mL with Citrobacter (18 hours, 37° C.). Moreover, the MIC with Streptococcus foecalis (setting [3]) is over 10 µg/mL; in the data set on Staphylococcus aureus (18 hours, 37° C.), over 10 µg/mL; in the data set on Escherichia coli (18 hours, 37° C.), 5 µg/mL (≈ 19.4 µM); in the data set with Salmonella para B (setting [4]) it was over 10 µg/mL; in data set [1] (Enterobacter liquefaciens, 18 hours, 37° C.), over 10 µg/mL. Besides, the MBC in the data set with Listeria monocytogenes (contact time 24 hours) and in the data set with Escherichia coli (contact time 24 hours) was 100 µg/mL (≈ 389 µM) in each case.

Regarding `CCn1cc(C(=O)O)c(=O)c2c3nn(C)cc3ccc21` [I g, 1-ethyl-3-carboxy-4-oxo-6-methyl-pyrazolo[3,4-f]uinoline], the MIC with Proteus mirabilis (18 hours, 37° C.) is over 100 µg/mL; with Pseudomonas aeruginosa (18 hours, 37° C.), over 100 µg/mL; with Klebsiella pneumoniae (18 hours, 37° C.), over 100 µg/mL; in the data set with Streptococcus foecalis (setting [3]) it was over 100 µg/mL; with Staphylococcus aureus (18 hours, 37° C.) it was over 100 µg/mL.

In the case of `CCn1cc(C(=O)O)c(=O)n2nc3ccccc3c12` [I a, 3-oxo-4-carboxy-6-ethyl-pyrimido[3,2-b]indazole], the MIC was over 100 µg/mL with Proteus mirabilis (18 hours, 37° C.); over 100 µg/mL with Pseudomonas aeruginosa (18 hours, 37° C.); over 100 µg/mL in the data set with Klebsiella pneumoniae (18 hours, 37° C.); over 100 µg/mL in the data set with Streptococcus foecalis (setting [3]); over 100 µg/mL in the data set on Staphylococcus aureus (18 hours, 37° C.); over 100 µg/mL with Escherichia coli (18 hours, 37° C.). For the same molecule, the MIC with Salmonella para B (setting [4]) was over 100 µg/mL.

Take `CCn1cc(C(=O)O)c(=O)c2ccc(C)nc21` [Nalidixic acid, nalidixic acid, reference compound]: the MIC in the data set on Proteus mirabilis (18 h) is over 200 µg/mL; in the data set on Enterobacter cloacae (18 h), 50 µg/mL (≈ 215 µM); in the data set with Pseudomonas aeruginosa (18 h), over 200 µg/mL; with Klebsiella pneumoniae (18 h), over 200 µg/mL; in the data set with Listeria monocytogenes (18 h) it was 5 µg/mL (≈ 21.5 µM); with Citrobacter (18 h), over 200 µg/mL. The MIC in the data set with Streptococcus foecalis (Streptococcus, 18 h) was over 200 µg/mL; in the data set on Staphylococcus aureus (18 h), over 200 µg/mL; with Escherichia coli (18 h) it was 5 µg/mL (≈ 21.5 µM); with Salmonella para B (Salmonella, 18 h), 5 µg/mL (≈ 21.5 µM); in data set [1] (Enterobacter, 18 h), 25 µg/mL (≈ 108 µM). The MBC was found to be 100 µg/mL (≈ 431 µM) with Enterobacter cloacae (24 h, read-out: minimum bactericidal concentration (MBC)); 100 µg/mL (≈ 431 µM) in the data set on Listeria monocytogenes (24 h); 100 µg/mL (≈ 431 µM) in the data set with Escherichia coli (24 h); 100 µg/mL (≈ 431 µM) in the data set on Salmonella para B (Salmonella, 24 h, read-out: minimum bactericidal concentration (MBC)); 100 µg/mL (≈ 431 µM) in data set [1] (Enterobacter, 24 h, read-out: minimum bactericidal concentration (MBC)).

For the molecule `CCn1cc(C(=O)O)c(=O)c2c1ccc1cnn(C)c12` [I f, 1-ethyl-3-carboxy-4-oxo-5-methyl-pyrazolo[5,4-f]uinoline], the MIC in the data set with Proteus mirabilis (18 hours, 37° C.) was over 10 µg/mL; in the data set with Pseudomonas aeruginosa (18 hours, 37° C.) it was over 10 µg/mL; in the data set on Streptococcus foecalis (setting [3]), over 10 µg/mL; with Staphylococcus aureus (18 hours, 37° C.), over 10 µg/mL.

`CCn1cc(C(=O)O)c(=O)c2c3[nH]ncc3ccc21` [Ie]: the LD50 in [2] (ip, intraperitoneal route) is 2500 mg/kg; in data set [2] (oral route) it was 4700 mg/kg.

As for `C=Cn1cc(C(=O)O)c(=O)c2c3[nH]ncc3ccc21` [I e', 1-Vinyl-3-carboxy-4-oxo-pyrazolo[5,4-f]quinoline], the MIC in the data set with Proteus mirabilis (18 hours, 37° C.) is over 10 µg/mL; in the data set on Pseudomonas aeruginosa (18 hours, 37° C.) it was over 10 µg/mL; in the data set on Klebsiella pneumoniae (18 hours, 37° C.), over 10 µg/mL; in the data set on Citrobacter (18 hours, 37° C.) it was over 10 µg/mL; in the data set on Streptococcus foecalis (setting [3]), over 10 µg/mL; with Staphylococcus aureus (18 hours, 37° C.) it was over 10 µg/mL. Also, in the data set on Escherichia coli (18 hours, 37° C.), the MIC is 5 µg/mL (≈ 19.6 µM). The 50% lethal dose (LD50) in [2] (ip, intraperitoneal route) was 2800 mg/kg; in [2] (oral route), over 5000 mg/kg.

By LD50 is commonly meant the dose at which mortality reaches 50%. A low value points to greater toxicity.
